# Results reported in paper PMC4494927, “Discovery of a small molecule targeting SET-PP2A interaction to overcome BCR-ABLT315I mutation of chronic myeloid leukemia” (Oncotarget, 2015).
# Experiments:
# ABL2 = ABL2 (Homo sapiens, UniProt P42684); experiment: In vitro kinase assay (Kinase-Glo / ADP-Glo); type: biochemical; settings: TGI1002 1 µM; means of two independent experiments; read-out: Inhibitory effect (%)
# Protocol: (§1) All kinase reactions were carried out in 384-well plates. After addition of the compounds, kinase and ATP-substrate were added to the assay plates successively, the assay plates were centrifuged at 1,000 x g for 1 min and incubated for 1 h at 30 °C. Then, Kinase-Glo Plus or ADP-Glo reagent was added to each well. In Kinase-Glo assay, after addition of the reagent for 20 min, the luminescence was measured on an EnVision Multilabel Plate Reader (Perkin-Elmer). In ADP-Glo assay, after addition of the reagent for 40 min, Kinase Detection Reagent was added and incubated for another 30 min at 27 °C, and then the luminescence was measured. Kinase inhibition rates were calculated per manufacturer's instructions.
# AKT2 = AKT2 (Homo sapiens, UniProt P31751); experiment: In vitro kinase assay (Kinase-Glo / ADP-Glo); type: biochemical; settings: TGI1002 1 µM; means of two independent experiments; read-out: Inhibitory effect (%)
# Protocol: as §1
# BRAF = BRAF (Homo sapiens, UniProt P15056); experiment: In vitro kinase assay (Kinase-Glo / ADP-Glo); type: biochemical; settings: TGI1002 1 µM; means of two independent experiments; read-out: Inhibitory effect (%)
# Protocol: as §1
# CDK1/CyclinB = CDK1/CyclinB (Homo sapiens, UniProt P06493); experiment: In vitro kinase assay (Kinase-Glo / ADP-Glo); type: biochemical; settings: TGI1002 1 µM; means of two independent experiments; read-out: Inhibitory effect (%)
# Protocol: as §1
# EGFR = EGFR (Homo sapiens, UniProt P00533); experiment: In vitro kinase assay (Kinase-Glo / ADP-Glo); type: biochemical; settings: TGI1002 1 µM; means of two independent experiments; read-out: Inhibitory effect (%)
# Protocol: as §1
# ERK2(MAPK1) = ERK2(MAPK1) (Homo sapiens, UniProt P28482); experiment: In vitro kinase assay (Kinase-Glo / ADP-Glo); type: biochemical; settings: TGI1002 1 µM; means of two independent experiments; read-out: Inhibitory effect (%)
# Protocol: as §1
# EphA1 = EphA1 (Homo sapiens, UniProt P21709); experiment: In vitro kinase assay (Kinase-Glo / ADP-Glo); type: biochemical; settings: TGI1002 1 µM; means of two independent experiments; read-out: Inhibitory effect (%)
# Protocol: as §1
# EphB2 = EphB2 (Homo sapiens, UniProt P29323); experiment: In vitro kinase assay (Kinase-Glo / ADP-Glo); type: biochemical
# Sequence of EphB2 (P29323 19-1055, species assumed): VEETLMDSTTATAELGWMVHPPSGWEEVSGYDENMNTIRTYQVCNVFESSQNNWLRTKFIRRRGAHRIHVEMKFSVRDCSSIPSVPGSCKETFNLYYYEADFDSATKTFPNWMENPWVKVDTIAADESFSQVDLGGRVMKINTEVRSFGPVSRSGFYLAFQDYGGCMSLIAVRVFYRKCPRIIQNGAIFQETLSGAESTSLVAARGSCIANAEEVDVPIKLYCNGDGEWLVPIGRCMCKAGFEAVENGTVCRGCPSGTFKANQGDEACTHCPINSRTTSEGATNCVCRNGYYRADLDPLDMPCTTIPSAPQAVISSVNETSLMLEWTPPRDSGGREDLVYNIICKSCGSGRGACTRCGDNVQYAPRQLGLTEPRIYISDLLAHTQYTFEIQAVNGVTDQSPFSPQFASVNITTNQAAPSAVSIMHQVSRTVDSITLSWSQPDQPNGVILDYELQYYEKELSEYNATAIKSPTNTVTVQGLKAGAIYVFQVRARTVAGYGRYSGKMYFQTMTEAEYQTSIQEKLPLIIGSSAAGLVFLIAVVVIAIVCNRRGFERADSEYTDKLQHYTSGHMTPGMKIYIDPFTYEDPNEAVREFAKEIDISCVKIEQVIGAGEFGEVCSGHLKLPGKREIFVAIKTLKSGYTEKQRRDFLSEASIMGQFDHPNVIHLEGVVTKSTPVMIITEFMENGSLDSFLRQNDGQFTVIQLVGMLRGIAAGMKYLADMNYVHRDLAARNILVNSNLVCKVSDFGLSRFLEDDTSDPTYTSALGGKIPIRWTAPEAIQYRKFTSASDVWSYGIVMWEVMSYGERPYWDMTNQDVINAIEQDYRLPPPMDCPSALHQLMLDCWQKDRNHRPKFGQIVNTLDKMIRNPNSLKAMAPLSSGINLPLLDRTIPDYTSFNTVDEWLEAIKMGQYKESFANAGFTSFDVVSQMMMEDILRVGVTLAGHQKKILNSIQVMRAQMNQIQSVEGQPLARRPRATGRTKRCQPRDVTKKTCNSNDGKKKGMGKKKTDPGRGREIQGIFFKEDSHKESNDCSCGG
# Protocol: as §1
# FGFR1 = FGFR1 (Homo sapiens, UniProt P11362); experiment: In vitro kinase assay (Kinase-Glo / ADP-Glo); type: biochemical; settings: TGI1002 1 µM; means of two independent experiments; read-out: Inhibitory effect (%)
# Protocol: as §1
# FGR = FGR (Homo sapiens, UniProt P09769); experiment: In vitro kinase assay (Kinase-Glo / ADP-Glo); type: biochemical; settings: TGI1002 1 µM; means of two independent experiments; read-out: Inhibitory effect (%)
# Sequence of FGR (P09769 whole entry): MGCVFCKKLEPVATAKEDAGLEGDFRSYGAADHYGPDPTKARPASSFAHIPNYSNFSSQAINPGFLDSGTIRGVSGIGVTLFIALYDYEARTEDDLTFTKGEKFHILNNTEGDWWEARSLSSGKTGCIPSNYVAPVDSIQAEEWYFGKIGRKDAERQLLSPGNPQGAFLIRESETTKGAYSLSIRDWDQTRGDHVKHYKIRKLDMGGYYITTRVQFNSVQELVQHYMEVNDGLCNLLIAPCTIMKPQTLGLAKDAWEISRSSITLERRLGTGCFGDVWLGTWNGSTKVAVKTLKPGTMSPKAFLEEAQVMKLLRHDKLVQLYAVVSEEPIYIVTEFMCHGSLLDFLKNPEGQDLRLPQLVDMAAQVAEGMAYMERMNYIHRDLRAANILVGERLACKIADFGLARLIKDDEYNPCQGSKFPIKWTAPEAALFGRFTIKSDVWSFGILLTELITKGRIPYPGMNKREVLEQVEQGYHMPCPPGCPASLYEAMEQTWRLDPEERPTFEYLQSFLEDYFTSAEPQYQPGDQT
# Protocol: as §1
# GSK3α = GSK3α (Homo sapiens, UniProt P49840); experiment: In vitro kinase assay (Kinase-Glo / ADP-Glo); type: biochemical; settings: TGI1002 1 µM; means of two independent experiments; read-out: Inhibitory effect (%)
# Protocol: as §1
# PI3Kβ = PI3Kβ (Homo sapiens, UniProt P42338); experiment: In vitro kinase assay (Kinase-Glo / ADP-Glo); type: biochemical; settings: TGI1002 1 µM; means of two independent experiments; read-out: Inhibitory effect (%)
# Protocol: as §1
# PI3Kγ = PI3Kγ (Homo sapiens, UniProt P48736); experiment: In vitro kinase assay (Kinase-Glo / ADP-Glo); type: biochemical; settings: TGI1002 1 µM; means of two independent experiments; read-out: Inhibitory effect (%)
# Sequence of PI3Kγ (P48736 whole entry): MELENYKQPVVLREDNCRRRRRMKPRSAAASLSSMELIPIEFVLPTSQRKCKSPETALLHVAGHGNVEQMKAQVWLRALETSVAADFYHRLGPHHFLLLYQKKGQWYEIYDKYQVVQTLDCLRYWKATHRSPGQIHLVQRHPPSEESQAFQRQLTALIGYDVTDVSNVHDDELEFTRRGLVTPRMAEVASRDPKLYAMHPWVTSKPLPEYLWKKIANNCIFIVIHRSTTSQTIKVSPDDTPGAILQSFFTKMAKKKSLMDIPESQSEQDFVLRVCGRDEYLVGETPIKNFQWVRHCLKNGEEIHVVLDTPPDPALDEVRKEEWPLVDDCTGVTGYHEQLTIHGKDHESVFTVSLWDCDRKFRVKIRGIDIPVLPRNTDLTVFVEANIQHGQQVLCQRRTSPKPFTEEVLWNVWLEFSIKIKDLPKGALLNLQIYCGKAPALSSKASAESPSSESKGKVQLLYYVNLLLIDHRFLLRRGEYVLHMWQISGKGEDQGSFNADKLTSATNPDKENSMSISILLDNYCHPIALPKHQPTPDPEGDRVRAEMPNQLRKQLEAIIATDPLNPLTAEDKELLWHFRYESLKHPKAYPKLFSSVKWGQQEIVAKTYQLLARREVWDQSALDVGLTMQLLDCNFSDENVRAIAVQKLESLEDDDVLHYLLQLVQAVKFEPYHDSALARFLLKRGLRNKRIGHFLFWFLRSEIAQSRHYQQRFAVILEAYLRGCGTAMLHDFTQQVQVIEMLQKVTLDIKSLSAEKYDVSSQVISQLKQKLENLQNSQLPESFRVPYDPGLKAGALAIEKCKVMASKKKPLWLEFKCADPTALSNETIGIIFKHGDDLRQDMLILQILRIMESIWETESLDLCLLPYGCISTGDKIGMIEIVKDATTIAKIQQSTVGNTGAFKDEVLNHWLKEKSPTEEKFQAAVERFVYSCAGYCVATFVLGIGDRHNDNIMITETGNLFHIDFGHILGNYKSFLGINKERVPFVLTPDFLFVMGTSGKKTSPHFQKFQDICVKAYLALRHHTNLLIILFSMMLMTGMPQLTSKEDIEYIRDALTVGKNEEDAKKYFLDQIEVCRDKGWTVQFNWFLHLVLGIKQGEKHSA
# Protocol: as §1
# PKCξ = PKCξ (Homo sapiens, UniProt Q05513); experiment: In vitro kinase assay (Kinase-Glo / ADP-Glo); type: biochemical; settings: TGI1002 1 µM; means of two independent experiments; read-out: Inhibitory effect (%)
# Protocol: as §1
# PLK1 = PLK1 (Homo sapiens, UniProt P53350); experiment: In vitro kinase assay (Kinase-Glo / ADP-Glo); type: biochemical; settings: TGI1002 1 µM; means of two independent experiments; read-out: Inhibitory effect (%)
# Sequence of PLK1 (P53350 whole entry): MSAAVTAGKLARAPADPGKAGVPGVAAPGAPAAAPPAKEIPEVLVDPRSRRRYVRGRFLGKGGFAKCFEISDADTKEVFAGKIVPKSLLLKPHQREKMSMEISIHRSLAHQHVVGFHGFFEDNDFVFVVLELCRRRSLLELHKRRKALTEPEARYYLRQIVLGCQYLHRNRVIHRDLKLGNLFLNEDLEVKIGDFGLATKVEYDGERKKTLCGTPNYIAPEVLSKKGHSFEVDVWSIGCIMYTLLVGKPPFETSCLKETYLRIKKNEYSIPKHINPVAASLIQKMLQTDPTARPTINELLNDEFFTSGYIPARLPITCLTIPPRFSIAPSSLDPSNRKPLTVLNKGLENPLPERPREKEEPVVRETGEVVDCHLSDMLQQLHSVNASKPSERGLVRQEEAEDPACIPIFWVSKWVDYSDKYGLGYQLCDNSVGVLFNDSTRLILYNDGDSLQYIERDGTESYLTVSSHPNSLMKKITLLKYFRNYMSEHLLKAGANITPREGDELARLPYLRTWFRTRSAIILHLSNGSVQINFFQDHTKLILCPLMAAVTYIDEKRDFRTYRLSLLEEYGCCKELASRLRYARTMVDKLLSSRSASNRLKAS
# Protocol: as §1
# RET = RET (Homo sapiens, UniProt P07949); experiment: In vitro kinase assay (Kinase-Glo / ADP-Glo); type: biochemical; settings: TGI1002 1 µM; means of two independent experiments; read-out: Inhibitory effect (%)
# Protocol: as §1
# SRC = SRC (Homo sapiens, UniProt P12931); experiment: In vitro kinase assay (Kinase-Glo / ADP-Glo); type: biochemical; settings: TGI1002 1 µM; means of two independent experiments; read-out: Inhibitory effect (%)
# Protocol: as §1
# TrkA = TrkA (Homo sapiens, UniProt P04629); experiment: In vitro kinase assay (Kinase-Glo / ADP-Glo); type: biochemical; settings: TGI1002 1 µM; means of two independent experiments; read-out: Inhibitory effect (%)
# Protocol: as §1
# BaF3-p210^T315I cells [1] = experiment: Cytotoxicity assay (CellTiter-Glo); type: cell-based, murine; settings: Mus musculus; TKI-resistant BaF3-p210^T315I cells, cell viability
# Protocol: Twenty types of tumor cell lines were seeded at 4000 cells per well in 96-well plates. TGI1002 dissolved in phosphate saline was added to cells at final concentrations ranging from 0.5 nM to 100 μM for 120 h. Cell viability was measured with the CellTiter-Glo Luminescent Cell Viability Assay (Promega) according to the manufacturer's instructions. Luminescence was measured using an EnVision Multilabel Plate Reader (Perkin-Elmer). The cytotoxicity of TGI1002 was expressed as the percentage of luminescence relative to that of untreated cells.
# SET-PP2A interaction = molecular target: T1, SET-PP2A interaction (Homo sapiens, UniProt Q01105); experiment: Co-immunoprecipitation of SET and PP2Ac in K562 cells; type: cell-based; settings: 24 h
# T1 construct: SET and PP2Ac protein complexes were immunoprecipitated; endogenous in cells; host or cells: K562
# T1 sequence (Q01105 whole entry): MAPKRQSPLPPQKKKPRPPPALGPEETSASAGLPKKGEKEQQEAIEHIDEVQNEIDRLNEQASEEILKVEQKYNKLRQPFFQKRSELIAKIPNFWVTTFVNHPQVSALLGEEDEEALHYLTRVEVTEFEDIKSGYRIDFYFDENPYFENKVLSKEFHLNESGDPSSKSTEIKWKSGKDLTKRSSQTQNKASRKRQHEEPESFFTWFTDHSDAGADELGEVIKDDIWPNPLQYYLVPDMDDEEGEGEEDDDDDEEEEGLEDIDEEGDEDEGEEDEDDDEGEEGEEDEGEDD
# Protocol: (§2) Protein samples (40 μg) were resolved on SDS-PAGE gels, transferred onto PVDF membranes (Millipore) and incubated overnight with primary antibodies to β-tubulin, BCR-ABL, p-BCR-ABL, SET, PP2Ac and p-PP2Ac. The membranes were incubated with horseradish peroxidase (HRP)-conjugated secondary antibody for 1 h, and the bands were visualized using an ECL detection kit following the manufacturer's instructions. For immunoprecipitation, cells were lysed in 20 mM Tris-HCl (pH 7.0), 150 mM NaCl, 1 mM EDTA, 1 mM MgCl and 0.5% NP-40 supplemented with a cocktail of protease and phosphatase inhibitors (Roche). Lysates (200 μg) were incubated with primary antibodies (1 μg) against SET or PP2Ac at 4 °C for 10 h, protein A/G plus agarose beads were then added for immunoprecipitation overnight at 4 °C. After wash, the immunoprecipitated proteins were separated by SDS-PAGE and analyzed by Western blotting.
# BCR-ABL = experiment: Western blot of BCR-ABL expression in K562 cells; type: cell-based, human
# Protocol: as §2
# [2] = tested on: BaF3-p210^T315I tumor xenografts; experiment: In vivo anti-tumor efficacy, subcutaneous xenograft; design: species or system BALB/c mice; settings: for inhibition of tumor growth, in terms of tumor volume: day 20 post-injection of BaF3-p210^T315I cells
# Protocol: BABL/c male mice from SLRC Experimental Animal Center were bred under pathogen-free conditions and were used for experiments at 6-8 weeks of age. Animal experiments were performed according to institutional and national guidelines. BaF3-p210^T315I cells were implanted subcutaneously into the right flank of nude mice (200 μL of a 1 × 10^7cells suspension in serum free medium). When tumors became large enough for caliper measurement, tumor volumes were calculated as (length × width^2) × 0.5. […] At the end of the experiments, tumors were dissected and photographed, and wet weights of each tumor were measured.
# BaF3-p210^T315I cells [3] = experiment: Survival study, intravenously injected tumor cells; type: in vivo, BALB/c mice; settings: 30 mg/kg i.p. once daily from day 5; vehicle 25.5 days
# Protocol: In survival study, BaF3-p210^T315I cells were injected into the tail vein of BALB/c mice (100 μL of a 1 × 10^7 cells suspension in serum free medium). […] Moribund animals were sacrificed as per institutional and national guidelines. Survival data were analyzed by the Kaplan Meier method and compared using the log-rank test.
# Sequence of ABL2 (P42684 whole entry): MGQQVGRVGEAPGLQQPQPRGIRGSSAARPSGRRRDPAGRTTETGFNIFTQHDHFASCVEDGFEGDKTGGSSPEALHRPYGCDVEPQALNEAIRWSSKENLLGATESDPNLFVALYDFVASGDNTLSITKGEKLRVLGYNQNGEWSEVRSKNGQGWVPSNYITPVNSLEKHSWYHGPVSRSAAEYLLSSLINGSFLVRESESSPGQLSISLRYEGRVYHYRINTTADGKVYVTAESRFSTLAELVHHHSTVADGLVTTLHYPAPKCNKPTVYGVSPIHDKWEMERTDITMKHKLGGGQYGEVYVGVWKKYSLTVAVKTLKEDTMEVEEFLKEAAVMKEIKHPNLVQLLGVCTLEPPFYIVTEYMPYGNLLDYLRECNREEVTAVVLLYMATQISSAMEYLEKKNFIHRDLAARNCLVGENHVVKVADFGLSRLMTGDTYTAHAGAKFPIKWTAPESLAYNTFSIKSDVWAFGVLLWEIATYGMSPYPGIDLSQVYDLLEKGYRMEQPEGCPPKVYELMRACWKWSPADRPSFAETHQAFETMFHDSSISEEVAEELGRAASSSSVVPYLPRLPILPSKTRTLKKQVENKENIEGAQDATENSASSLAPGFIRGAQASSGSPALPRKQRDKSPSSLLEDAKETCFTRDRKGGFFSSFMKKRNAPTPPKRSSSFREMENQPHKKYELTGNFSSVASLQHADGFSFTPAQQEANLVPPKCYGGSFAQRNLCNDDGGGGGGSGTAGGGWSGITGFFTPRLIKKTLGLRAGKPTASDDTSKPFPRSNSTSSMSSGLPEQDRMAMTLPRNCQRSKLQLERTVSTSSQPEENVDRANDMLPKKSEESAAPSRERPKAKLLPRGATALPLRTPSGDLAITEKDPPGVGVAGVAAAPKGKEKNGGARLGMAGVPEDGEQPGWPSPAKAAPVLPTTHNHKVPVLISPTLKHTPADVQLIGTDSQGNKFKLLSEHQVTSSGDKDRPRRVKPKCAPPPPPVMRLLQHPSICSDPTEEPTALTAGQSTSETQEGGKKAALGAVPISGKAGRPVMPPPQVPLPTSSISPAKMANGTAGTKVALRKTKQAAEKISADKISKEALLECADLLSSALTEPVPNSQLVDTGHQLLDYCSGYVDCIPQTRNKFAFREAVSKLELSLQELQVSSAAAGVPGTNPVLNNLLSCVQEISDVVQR
smiles,measurement,setting,value
"Cc1ccc(NC(=O)c2cccc(CN3CCN(C)CC3)c2)cc1Oc1nccc(-c2cccnc2)n1.Cl [TGI1002, N-(4-methyl-3-((4-(pyridin-3-yl)-pyrimidin-2-yl)oxy)phenyl)-3-((4-methylpiperazin-1-yl)methyl)benzamide hydrochloride]",inhibition at 1 µM,ABL2,19.2%
same,inhibition at 1 µM,AKT2,4.72%
same,inhibition at 1 µM,BRAF,2.3%
same,inhibition at 1 µM,CDK1/CyclinB,3.24%
same,inhibition at 1 µM,EGFR,0%
same,inhibition at 1 µM,ERK2(MAPK1),0%
same,inhibition at 1 µM,EphA1,1.58%
same,IC50,EphB2; EphB2 kinase activity,1.27 µM
same,inhibition at 1 µM,"EphB2; TGI1002 1 µM, means of two independent experiments, read-out: Inhibitory effect (%)",46.7%
same,inhibition at 1 µM,FGFR1,9.71%
same,inhibition at 1 µM,FGR,7.53%
same,inhibition at 1 µM,GSK3α,2.6%
same,inhibition at 1 µM,PI3Kβ,0%
same,inhibition at 1 µM,PI3Kγ,2.65%
same,inhibition at 1 µM,PKCξ,13.3%
same,inhibition at 1 µM,PLK1,1.63%
same,inhibition at 1 µM,RET,12.2%
same,inhibition at 1 µM,SRC,1.09%
same,inhibition at 1 µM,TrkA,3.11%
same,IC50,BaF3-p210^T315I cells [1],14.7 ± 2.61 µM
same,association between SET and PP2A,SET-PP2A interaction,trend of decrease
same,expression level of BCR-ABL,BCR-ABL,not affected
same,"inhibition of tumor growth, in terms of tumor volume",[2]; 30 mg/kg i.p. daily,51.07%
same,"inhibition of tumor growth, in terms of tumor volume",[2]; 45 mg/kg i.p. daily,53.15%
same,"inhibition of tumor growth, in terms of tumor volume",[2]; 60 mg/kg i.p. daily,68.01%
same,body weight,"[2]; 30, 45 and 60 mg/kg i.p. daily, tumor-bearing mice",without loss of body weight
same,final tumor volume and weight compared to vehicle group,"[2]; TGI1002 30, 45, 60 mg/kg, imatinib, ponatinib 10 mg/kg, i.p. daily",markedly lower
same,median survival,BaF3-p210^T315I cells [3],32.5 days
